Biological target: FKBP (FK506 binding protein) and FRB (FKBP-rapamycin binding) protein (Homo sapiens, UniProt P42345+P62942)
Test: Chemically inducible dimerization (FKBP/FRB) protein translocation in GUVs on external rapamycin
Type: biochemical
Conditions: rapamycin added outside the vesicles
From the text: 3A) Schematic of the GUV containing fluorescently-labeled FK506 binding protein (FKBP) and FKBP-rapamycin binding (FRB) proteins. In this embodiment, FKBP peptide is fused to the positively charged myristoylated alanine-rich protein kinase c substrate (MARCKS) domain and binds to the negatively charged phosphatidylserine lipids present at the inner leaflet. The FKBP binding partner, FRB, is luminal. […] The normalized intensity profiles are the intensity traces of the dashed line in each image.
This was achieved by using the chemically inducible dimerization paradigm where FKBP (FK506 binding protein) and FRB (FKBP-rapamycin binding) protein can hetrodimerize in the presence of rapamycin.

Chain of FKBP (FK506 binding protein) and FRB (FKBP-rapamycin binding) protein (P62942 whole entry): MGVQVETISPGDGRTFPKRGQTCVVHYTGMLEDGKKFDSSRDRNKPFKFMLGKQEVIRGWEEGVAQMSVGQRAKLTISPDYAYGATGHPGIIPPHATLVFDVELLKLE
Chain of FKBP (FK506 binding protein) and FRB (FKBP-rapamycin binding) protein (P42345 2012-2144 limits assumed): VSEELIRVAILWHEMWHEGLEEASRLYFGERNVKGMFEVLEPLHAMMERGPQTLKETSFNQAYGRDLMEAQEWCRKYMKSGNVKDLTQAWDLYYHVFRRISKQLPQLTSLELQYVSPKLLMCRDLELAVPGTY

CO[C@H]1C[C@@H]2CC[C@@H](C)[C@@](O)(O2)C(=O)C(=O)N2CCCC[C@H]2C(=O)O[C@H]([C@H](C)C[C@@H]2CC[C@@H](O)[C@H](OC)C2)CC(=O)[C@H](C)/C=C(\C)[C@@H](O)[C@@H](OC)C(=O)[C@H](C)C[C@H](C)/C=C/C=C/C=C/1C [rapamycin]
Permeation of the GUV membrane: permeates the vesicles

Reference: US11951210B2, “Methods for making giant vesicles and their use” (THE JOHNS HOPKINS UNIVERSITY, priority 2017, dated 2024)
